How the values were obtained:
[1] = target: T1, Acyl-CoA (8-3)-desaturase (Homo sapiens, UniProt O60427); assay: Inhibition of liver delta-5 desaturase (unknown origin)
Target sequence in this assay (O60427 whole entry): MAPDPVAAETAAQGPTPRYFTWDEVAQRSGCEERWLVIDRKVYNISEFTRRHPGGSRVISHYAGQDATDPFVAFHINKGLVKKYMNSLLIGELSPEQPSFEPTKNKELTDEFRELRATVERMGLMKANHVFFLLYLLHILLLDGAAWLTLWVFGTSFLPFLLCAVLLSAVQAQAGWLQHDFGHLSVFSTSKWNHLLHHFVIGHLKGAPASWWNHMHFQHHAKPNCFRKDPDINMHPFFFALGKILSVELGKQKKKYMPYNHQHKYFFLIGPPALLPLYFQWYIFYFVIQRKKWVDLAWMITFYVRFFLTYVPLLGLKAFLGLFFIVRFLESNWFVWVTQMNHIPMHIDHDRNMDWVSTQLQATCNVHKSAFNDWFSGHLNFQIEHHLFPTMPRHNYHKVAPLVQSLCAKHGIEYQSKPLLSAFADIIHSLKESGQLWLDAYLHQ

[2] = Plasma concentration in mouse at 30 mg/kg, po after 0.5 hrs by LC/MS-MS analysis; type: ADME, organism-based
[3] = Ratio of plasma concentration in mouse at 30 mg/kg, po after 0.5 hrs to IC50 for liver delta-5 desaturase (unknown origin); type: ADME, organism-based; details: in vivo
[4] = test system: Mus musculus; assay: In vivo inhibition of delta-5 desaturase in mouse liver assessed as conversion of [14C]-DGLA to [14C]-arachidonic acid at 30 mg/kg, po after 2.5 hrs by TLC analysis relative to control; type: functional
[5] = Plasma concentration in mouse at 60 mg/kg, po after 0.5 hrs by LC/MS-MS analysis; type: ADME, organism-based
[6] = Ratio of plasma concentration in mouse at 60 mg/kg, po after 0.5 hrs to IC50 for liver delta-5 desaturase (unknown origin); type: ADME, organism-based; details: in vivo
[7] = test system: Mus musculus; assay: In vivo inhibition of delta-5 desaturase in mouse liver assessed as conversion of [14C]-DGLA to [14C]-arachidonic acid at 60 mg/kg, po after 2.5 hrs by TLC analysis relative to control; type: functional
[8] = target: T1, Acyl-CoA (8-3)-desaturase; assay: Inhibition of liver delta-5 desaturase (unknown origin) at 1 uM
Target sequence in this assay (O60427 whole entry, looked up): as the sequence (O60427 whole entry) above

SMILES	IC50 [1]	further results
O=C(Nc1cccc(Cl)c1)c1ccccc1O	174 nM	
Clc1cccc(Nc2ncnc3ccsc23)c1	50 nM	
Nc1ccccc1C(=O)Nc1cccc(Cl)c1	58 nM	
Cc1ccc2[nH]nc(Nc3cccc(Cl)c3)c2c1	6 nM	
Clc1cccc(Nc2n[nH]c3ccccc23)c1	84 nM	concentration at 0.5 h [2]: 12.7 µM; Ratio [3]: 151; inhibition in vivo at 30 mg/kg [4]: 42%
FC(F)(F)c1ccc2[nH]nc(Nc3cccc(Cl)c3)c2c1	254 nM	
Clc1cccc(Nc2ccnc3ccccc23)c1	18 nM	
Clc1cccc(Nc2n[nH]c3ccc(Cl)cc23)c1	5 nM	
Clc1cccc(NC2CCc3ccccc32)c1 (stereo not drawn)	173 nM	
CCOc1ccc(O)c(C(=O)Nc2cccc(Cl)c2)c1	925 nM	
Clc1cccc(Nc2cccc3ccccc23)c1	17 nM	
Clc1cccc(Nc2ncnc3ccccc23)c1	11 nM	
Nc1ccccc1C(=O)Nc1cccc(F)c1	516 nM	
Fc1cccc(Nc2n[nH]c3ccccc23)c1	59 nM	concentration at 0.5 h [2]: 9.45 µM; Ratio [3]: 160; inhibition in vivo at 30 mg/kg [4]: 18%
Clc1cccc(Nc2ncnc3sccc23)c1	260 nM	
Clc1cccc(Nc2n[nH]c3ccc(Br)cc23)c1	21 nM	
Clc1cccc(Nc2nccc3occc23)c1	371 nM	
Nc1ccc(Cl)cc1C(=O)Nc1cccc(Cl)c1	34 nM	
Nc1ccccc1C(=O)Nc1cc(Cl)cc(Cl)c1	245 nM	
FC(F)(F)Oc1ccc2[nH]nc(Nc3cccc(Cl)c3)c2c1	> 3000 nM	
COc1ccc2[nH]nc(Nc3cccc(Cl)c3)c2c1	8 nM	concentration at 0.5 h [2]: 5.21 µM; concentration at 0.5 h [5]: 14 µM; Ratio [3]: 652; Ratio [6]: 1753; inhibition in vivo at 30 mg/kg [4]: 75%; inhibition in vivo at 60 mg/kg [7]: 97%
COc1ccc(O)c(C(=O)Nc2cccc(Cl)c2)c1	15 nM	
Nc1ccc(F)cc1C(=O)Nc1cccc(Cl)c1	67 nM	
Nc1ccccc1C(=O)Nc1ccccc1Cl		inhibition [8]: 39%
Nc1ccccc1C(=O)Nc1ccc(F)c(Cl)c1	155 nM	
CC(C)c1cccc(NC(=O)c2ccccc2N)c1	843 nM	
Fc1ccc2[nH]nc(Nc3cccc(Cl)c3)c2c1	58 nM	concentration at 0.5 h [2]: 14.1 µM; Ratio [3]: 242; inhibition in vivo at 30 mg/kg [4]: 49%
Nc1ccccc1C(=O)Nc1ccc(Cl)cc1		inhibition [8]: 36%

Reference: ChEMBL document CHEMBL3608212, “Design, synthesis, and in vivo activity of novel inhibitors of delta-5 desaturase for the treatment of metabolic syndrome” (Bioorg Med Chem Lett, 2015)
